Experimental data as given in ChEMBL document CHEMBL3351292, “Structure-Based Design and Synthesis of Potent Cyclic Peptides Inhibiting the YAP-TEAD Protein-Protein Interaction” (ACS Med Chem Lett, 2014).
pIC50, pKd: −log10 of the molar value. Where a SMILES comes first, the peptide text is derived from it. Bridges are numbered along the chain shown (N, C = ends). [ ]: non-standard residue; d: D form. hCys = N[C@@H](CCS)C(=O)O; Nle = CCCC[C@H](N)C(=O)O

Tests used:
[1] = target: T1, Transcriptional coactivator YAP1/Transcriptional enhancer factor TEF-1 (Homo sapiens, UniProt P28347); test: Inhibition of YAP/ GST-TEAD1 interaction in human Bel-7404 cells […]; assay type: cell-based, Bel7404
[2] = target: T1, Transcriptional coactivator YAP1/Transcriptional enhancer factor TEF-1; test: Inhibition of YAP/ GST-TEAD1 (unknown origin) interaction by surface plasmon resonance assay; assay type: protein assay

T1 sequence (P46937 whole entry): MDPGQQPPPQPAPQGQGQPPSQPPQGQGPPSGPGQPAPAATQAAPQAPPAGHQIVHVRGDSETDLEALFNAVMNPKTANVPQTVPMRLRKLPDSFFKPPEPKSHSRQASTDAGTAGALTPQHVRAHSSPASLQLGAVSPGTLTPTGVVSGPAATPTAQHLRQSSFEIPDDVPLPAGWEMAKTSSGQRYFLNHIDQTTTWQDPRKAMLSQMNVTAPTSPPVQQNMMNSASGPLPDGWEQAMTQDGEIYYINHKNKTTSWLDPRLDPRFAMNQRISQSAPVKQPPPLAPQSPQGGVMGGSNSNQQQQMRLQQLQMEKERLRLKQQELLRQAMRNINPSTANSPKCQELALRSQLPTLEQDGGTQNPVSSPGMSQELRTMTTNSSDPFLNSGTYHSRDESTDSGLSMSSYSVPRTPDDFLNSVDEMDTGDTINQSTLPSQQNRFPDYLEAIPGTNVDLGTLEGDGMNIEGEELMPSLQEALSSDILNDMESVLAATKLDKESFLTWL
T1 sequence (P28347 whole entry): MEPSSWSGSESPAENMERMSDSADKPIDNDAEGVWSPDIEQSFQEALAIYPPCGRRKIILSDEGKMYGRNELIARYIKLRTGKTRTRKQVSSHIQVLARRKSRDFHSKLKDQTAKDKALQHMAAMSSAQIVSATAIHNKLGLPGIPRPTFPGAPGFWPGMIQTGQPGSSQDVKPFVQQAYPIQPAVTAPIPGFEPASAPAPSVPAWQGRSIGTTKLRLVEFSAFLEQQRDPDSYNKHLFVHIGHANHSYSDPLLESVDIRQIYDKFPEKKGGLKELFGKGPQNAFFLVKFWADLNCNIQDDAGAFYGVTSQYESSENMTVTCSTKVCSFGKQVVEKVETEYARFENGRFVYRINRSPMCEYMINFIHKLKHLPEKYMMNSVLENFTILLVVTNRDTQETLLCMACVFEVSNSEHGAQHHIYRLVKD

Row | pKd [1] | pIC50 [2] | SMILES
1 | 7.41 | 6.82 | CCCC[C@@H]1NC(=O)[C@H](CCCCN)NC(=O)[C@H](CCCNC(=N)N)NC(=O)[C@H](CC(C)C)NC(=O)[C@@H](NC(=O)[C@H](CCSC)NC(=O)[C@@H]2CCCN2C(=O)[C@@H](NC(C)=O)C(C)C)CCSSC[C@@H](C(=O)N[C@@H](CCCCN)C(=O)N2CCC[C@H]2C(=O)N2CCC[C@H]2C(=O)N[C@@H](CCC(=O)O)C(N)=O)NC(=O)[C@H](Cc2ccccc2)NC(=O)[C@H](CO)NC(=O)[C@H](C)NC(=O)[C@@H]2CCCN2C1=O
2 | 7.74 | 7.38 | CCCCC[C@@H]1NC(=O)[C@H](CCCCN)NC(=O)[C@H](CCCNC(=N)N)NC(=O)[C@H](CC(C)C)NC(=O)[C@@H](NC(=O)[C@H](CCSC)NC(=O)[C@@H]2CCCN2C(=O)[C@@H](NC(C)=O)C(C)C)CCSSC[C@@H](C(=O)N[C@@H](CCCCN)C(=O)N2CCC[C@H]2C(=O)N2CCC[C@H]2C(=O)N[C@@H](CCC(=O)O)C(N)=O)NC(=O)[C@H](Cc2ccccc2)NC(=O)[C@H](CO)NC(=O)[C@H](C)NC(=O)[C@@H]2CCCN2C1=O
3 | 7.82 | 7.60 | CCCC[C@@H]1NC(=O)[C@H](CCCCN)NC(=O)[C@H](CCCNC(=N)N)NC(=O)[C@H](CC(C)C)NC(=O)[C@@H](NC(=O)[C@H](Cc2cccc(Cl)c2)NC(=O)[C@@H]2CCCN2C(=O)[C@@H](NC(C)=O)C(C)C)CCSSC[C@@H](C(=O)N[C@@H](CCCCN)C(=O)N2CCC[C@H]2C(=O)N2CCC[C@H]2C(=O)N[C@@H](CCC(=O)O)C(N)=O)NC(=O)[C@H](Cc2ccccc2)NC(=O)[C@H](CO)NC(=O)[C@H](C)NC(=O)[C@@H]2CCCN2C1=O
4 | 6.68 | 5.77 | CCCC[C@@H]1NC(=O)[C@H](CCCCN)NC(=O)[C@H](CCCNC(=N)N)NC(=O)[C@H](CC(C)C)NC(=O)[C@@H](NC(=O)[C@H](CCSC)NC(=O)[C@@H]2CCCN2C(=O)[C@@H](NC(C)=O)C(C)C)CCSSC[C@@H](C(=O)N[C@@H](CCCCN)C(=O)N2CCC[C@H]2C(=O)N2CCC[C@H]2C(=O)N[C@@H](CCC(=O)O)C(N)=O)NC(=O)[C@H](Cc2ccccc2)NC(=O)[C@H](CO)NC(=O)[C@H](CC(=O)O)NC(=O)[C@@H]2CCCN2C1=O (Ac-VPM[hCys]LRK[Nle]PDSFCKPPE-NH2; disulfide 4-13)
